Source: article PMC5693770 (Cell chemical biology, 2017)

Legend:
PPP2R1A [1] = molecular target: T1, PPP2R1A (Homo sapiens, UniProt P30153); assay: gel-based ABPP, competition with IAyne labeling; format: binding
PPP2R1A [2] = molecular target: T1, PPP2R1A; assay: gel-based ABPP, competition with IAyne labeling of pure protein; format: binding
SCP2 = molecular target: T2, SCP2 (Homo sapiens, UniProt P22307); assay: in situ competitive isoTOP-ABPP in […]MFP cells, light to heavy ratio […]; format: cell-based
T2 sequence (P22307 1-547): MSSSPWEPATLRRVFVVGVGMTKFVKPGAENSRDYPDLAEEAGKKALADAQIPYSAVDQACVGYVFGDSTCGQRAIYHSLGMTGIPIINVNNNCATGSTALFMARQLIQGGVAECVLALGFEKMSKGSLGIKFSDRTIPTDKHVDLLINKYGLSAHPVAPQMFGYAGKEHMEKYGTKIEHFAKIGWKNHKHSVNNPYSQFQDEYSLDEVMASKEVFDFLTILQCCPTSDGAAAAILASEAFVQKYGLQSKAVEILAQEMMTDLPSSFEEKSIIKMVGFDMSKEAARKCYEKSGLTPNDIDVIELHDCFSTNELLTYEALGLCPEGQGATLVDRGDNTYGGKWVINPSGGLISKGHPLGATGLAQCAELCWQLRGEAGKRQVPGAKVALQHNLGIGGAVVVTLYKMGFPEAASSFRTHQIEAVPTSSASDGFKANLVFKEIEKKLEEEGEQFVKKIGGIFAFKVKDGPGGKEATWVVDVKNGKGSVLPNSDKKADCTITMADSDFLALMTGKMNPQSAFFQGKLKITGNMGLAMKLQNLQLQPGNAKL

CLIC4 = CLIC4 (Homo sapiens, UniProt Q9Y696); assay: as above; format: cell-based
ACAT1 = molecular target: T3, ACAT1 (Homo sapiens, UniProt P24752); assay: as above; format: cell-based
T3 sequence (P24752 34-427): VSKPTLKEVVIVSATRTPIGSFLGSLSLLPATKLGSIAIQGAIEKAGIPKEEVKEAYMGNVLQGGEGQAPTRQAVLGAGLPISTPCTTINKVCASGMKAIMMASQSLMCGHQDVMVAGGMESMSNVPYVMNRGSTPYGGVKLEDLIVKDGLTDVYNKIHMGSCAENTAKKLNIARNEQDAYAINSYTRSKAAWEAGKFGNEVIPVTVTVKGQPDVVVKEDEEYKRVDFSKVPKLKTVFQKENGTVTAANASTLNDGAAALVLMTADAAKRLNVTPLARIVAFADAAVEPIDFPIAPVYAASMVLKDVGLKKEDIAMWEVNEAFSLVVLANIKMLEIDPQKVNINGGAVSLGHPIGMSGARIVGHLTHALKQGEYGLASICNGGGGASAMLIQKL

PPP2R1A [3] = molecular target: T1, PPP2R1A; assay: gel-based ABPP, competition with IAyne labeling of pure protein; format: binding; remark: listed apart in the source
TXNDC17 = molecular target: T4, TXNDC17 (Homo sapiens, UniProt Q9BRA2); assay: in situ competitive isoTOP-ABPP in […]MFP cells, light to heavy ratio […]; format: cell-based
T4 sequence (Q9BRA2 2-123): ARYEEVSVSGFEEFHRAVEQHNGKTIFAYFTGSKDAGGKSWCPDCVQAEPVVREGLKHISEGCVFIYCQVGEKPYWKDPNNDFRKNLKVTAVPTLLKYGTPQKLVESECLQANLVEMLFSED

T1 sequence (P30153 2-589): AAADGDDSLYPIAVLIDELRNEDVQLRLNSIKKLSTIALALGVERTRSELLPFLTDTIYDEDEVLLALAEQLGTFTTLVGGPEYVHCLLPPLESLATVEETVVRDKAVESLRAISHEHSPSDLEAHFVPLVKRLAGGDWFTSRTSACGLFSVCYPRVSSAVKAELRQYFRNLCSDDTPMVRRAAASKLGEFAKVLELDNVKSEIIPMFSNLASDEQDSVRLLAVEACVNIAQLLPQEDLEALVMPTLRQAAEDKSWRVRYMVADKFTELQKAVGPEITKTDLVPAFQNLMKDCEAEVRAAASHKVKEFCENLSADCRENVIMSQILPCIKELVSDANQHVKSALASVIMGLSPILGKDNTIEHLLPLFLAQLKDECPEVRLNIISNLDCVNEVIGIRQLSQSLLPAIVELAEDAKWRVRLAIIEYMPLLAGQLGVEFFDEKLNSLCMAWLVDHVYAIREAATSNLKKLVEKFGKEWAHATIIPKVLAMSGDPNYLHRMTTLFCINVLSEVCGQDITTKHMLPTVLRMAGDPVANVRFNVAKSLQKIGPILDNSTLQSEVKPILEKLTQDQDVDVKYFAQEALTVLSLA
Sequence of CLIC4 (Q9Y696 2-253): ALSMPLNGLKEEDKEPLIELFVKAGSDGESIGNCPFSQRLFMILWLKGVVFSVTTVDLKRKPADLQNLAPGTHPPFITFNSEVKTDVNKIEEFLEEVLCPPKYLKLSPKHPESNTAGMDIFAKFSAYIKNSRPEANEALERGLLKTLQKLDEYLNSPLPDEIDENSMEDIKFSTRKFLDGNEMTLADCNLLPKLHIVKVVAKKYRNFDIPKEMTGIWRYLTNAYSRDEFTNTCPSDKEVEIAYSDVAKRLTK

With O=C(CCl)Nc1ccc2c(c1)CCCC2 [JNS 1-37] the IC50 (PPP2R1A [1]) was 300 µM.
For O=C(CCl)N(Cc1ccccc1)c1ccc2c(c1)OCCO2 [JNS 1-40], the IC50 (PPP2R1A [2]) was 630 nM.
With DKM 2-90 the “in situ competitive isoTOP-ABPP in 231MFP cells, light to heavy ratio >5” value (SCP2) was > 5 light to heavy ratio, the “in situ competitive isoTOP-ABPP in 231MFP cells, light to heavy ratio >5” value (CLIC4) was > 5 light to heavy ratio and the “in situ competitive isoTOP-ABPP in 231MFP cells, light to heavy ratio >5” value (ACAT1) was > 5 light to heavy ratio. For the same compound, the IC50 (PPP2R1A [3]) was 10 µM and the “in situ competitive isoTOP-ABPP in 231MFP cells, light to heavy ratio >5” value (TXNDC17) was > 5 light to heavy ratio.
